{
  "source": "patent US20200375691A1",
  "about": "“PERACETIC ACID VAPOR STERILIZATION SYSTEM” (Medivators Inc., priority 2018, published 2020)",
  "key": {"[1]": {"system": "Geobacillus stearothermophilus spores", "assay": "Heated bubbler Cycle 253, inoculated Olympus TJF-160 duodenoscope without hookups", "assay_type": "cell-based", "conditions": "Cycle 253: contact time 1200, 3 inj, 6-logs of spores, no hookups", "excerpt": "(§1) An assortment of process challenge devices (PCDs) were procured as a rough gauge to see what modes of sterilization are possible with the current bubbler 430 setup. These devices included simple Tyvek bags containing BIs, a syringe based PCD which contained a BI, a HF2000 Hemofilter cut to allow a BI to be inserted into the fiber mesh, and an artificial bone matrix provided by the REVOX team. Additionally, an Olympus TJF160 duodenoscope was inoculated with 6-log of bacteria on the exterior surface and within the scope lumens and was exposed to a Bubbler cycle with no hookups. This scope was used to assess penetration of sterilant down fine lumens.\nThe difference between heated and non-heated bubbler systems is the resulting humidity present in the chamber during the sterilization cycles. The humidity level on Cycle 250, as an example, exceeded 100% relative humidity. Maximum humidity levels were recorded by visual observation. The importance of humidity was again shown in Cycle 251 where humidity levels never exceeded 60% while testing a rapid, multi block cycle. […] Cycle 252 was used to test the effect of a single block run with a longer period of hold. […] Cycle 253 tested the penetration of Bubbler created PAA vapor into the long lumens of an Olympus TJF-160 duodenoscope. […]"}, "[2]": {"system": "Geobacillus stearothermophilus", "assay": "Sterilization of inoculated flexible endoscopes with PAA vapor from a one liter glass bubbler", "assay_type": "cell-based", "conditions": "6-7 log inoculum, chamber at room temperature", "excerpt": "A one liter glass bubbler as the vapor system was used to test three different flexible endoscopes to determine the efficacy of the system against microorganisms as a function of size and architecture of endoscope.\nThe three endoscope types were chosen to meet the three primary conditions of flexible endoscopes: • Long endoscope: XSIF-100 • Complex channel system scope: CFQ-160L • Basic/small scope: BF-P40 and BF-P30\nEach scope was inoculated on both the exterior and interior of the lumens with Geobacillus stearothermophilus suspended in serum or saline solution at a target concentration of microorganisms of 6-7 log for each run. The scope was then sealed inside a double Tyvek bag with a hookup adaptor. Each flexible endoscope was evaluated for a total of 22 inoculated surfaces to achieve a greater than 95% confidence level.\nThe test conditions for each scope are described below: • For CF-Q160L endoscope: • a. Bubbler flow rate: 4000 mL/min • b. Circulation Flow Rate: 12000 mL/min • c. Contact Time: 60 min\nFor XSIF-100 endoscope: • a. Bubbler flow rate: […] • b. Circulation Flow Rate: 11000 mL/min • c. Contact Time: 15 min and 30 min\nFor BF-P40 and BF-P30 endoscopes: • a. Bubbler flow rate: 4000 mL/min • b. Circulation Flow Rate: 11000 mL/min • c. Contact Time: 30 min\nThe chamber for all the runs was at room temperature."}, "[3]": {"system": "Mesa brand biological indicator (BI)", "assay": "System 220 bubbler flow through elevator wire channel, biological indicator kill", "assay_type": "cell-based", "excerpt": "In this embodiment, vapor system 220 was substantially modified to allow PAA vapor to flow from the bubbler 231 into an endoscope's elevator wire channel 270. To generate flow, a duodenoscope was placed in a poly tray (no terminal packaging was used) and the elevator wire channel of the endoscope was connected to the flow path. The vacuum chamber 240 was evacuated to 20 torr (±5 torr) so as to create enough pressure differential to flow PAA vapor 232A without any additional mechanical assistance, such as a pump. The flow rate was estimated to be about 150 ml per minute. Potential system leaks were assessed by closing the On/Off valve of the bubbler, isolating the chamber in manual control mode, and holding for 5 minutes. Chamber leak rate was determined to be less than 0.5 torr per five minutes. Depending on the application and the size of the bubbler vessel, PAA flow rate was to be controlled via the needle valve. In this illustrated embodiment, needle valve 252 was in its maximum flow position during all experiments, indicating needle valve 252 was not needed. Flow of PAA vapor to the distal tip of the scope was assured by affixing a PAA chemical indicator (CI) 280. Additional CIs were placed throughout the chamber to monitor for the presence of residual PAA presence, but these were optional and not critical to the operation of system 220. […]"}, "[4]": {"system": "Geobacillus stearothermophilus", "assay": "Colonoscope sterilization in 60 liter stainless steel chamber", "assay_type": "cell-based", "conditions": "colonoscope CFQ-160 L, bubbler 4 L/min, circulation approximately 12 L/min, 60 minutes, 6-7 log inoculum", "experimental": "A 60 liter stainless steel chamber was used to determine the effect of chamber size on the efficacy of the bubbler system when the chamber size and material were changed. The flow rate used was 4 L/min for a bubbler and approximately 12 L/min for circulation and the sterilization time was for 60 minutes. Twenty-two inoculated surfaces were studied with the colonoscope (CFQ-160 L). Each scope was inoculated on both the exterior and interior of the lumens with Geobacillus stearothermophilus suspended in serum or saline solution at a target concentration of microorganisms of 6-7 log for each run."}, "[5]": {"conditions": "limit that the residual is compared with; cited from earlier work"}, "[6]": {"assay": "Evacuation of sterilant after sterilization: PAA in chamber and residuals on scope", "conditions": "after 30 minute ventilation", "excerpt": "To evacuate the sterilant out after the sterilization process, the experiment utilized three additional parts to the system: • 1. Circulating fan inside the chamber lid to generate turbulence to promote the evacuation process. • 2. Air pump at the outlet vent to help remove the sterilant out of the system. • 3. Medical air inlet to dilute the concentration of PAA for faster evacuating process.\nThe process included a flow of medical air in at 15 L/min (flow through both chamber and lumen of scope) and a flow of air out of the chamber (generated by the air pump) and a circulation flow inside the chamber (generated by the fan). The equivalent of flow through the chamber allowed the pressure inside the chamber to be closer to atmospheric pressure to reduce scope damage and allow easier design of the chamber."}, "[7]": {"system": "biological indicators (BIs)", "assay": "Heated 90 cm bubbler runs, biological indicators in beakers, Tyvek and process challenge devices", "assay_type": "cell-based", "experimental": "In this example embodiment of bubbler 430 and system 420, the Bubbler System was modified to accept a 50 mm outside diameter by 90 cm long glass tube (5 mm wall thickness) attached to a 417-liter REVOX system. During all experiments, 250 mL of REVOX PA liquid was measured by graduated cylinder and poured into the 90 cm Bubbler. The Bubbler System was connected to the 417-liter REVOX sterilization chamber referred to as an improved bubbler vessel configuration. Air was drawn into bubbler 430 using only the force of the vacuum within sterilization chamber. A simple on-off valve was used to control the flow of air through the bubbler, allowing for “blocks” to be created in a similar manner to a normal REVOX cycle. In several cases a flow meter and/or infrared vapor detector was used to monitor the output of the Bubbler. In all cases, unused functions of the modified Revox Sterilization chamber/system were turned off (e.g. Dehumidification Hold was always set to 0) or were disabled (e.g. scope flow valve power was physically unplugged).\nas §1\nThe difference between heated and non-heated bubbler systems is the resulting humidity present in the chamber during the sterilization cycles. The humidity level on Cycle 250, as an example, exceeded 100% relative humidity. Maximum humidity levels were recorded by visual observation. The importance of humidity was again shown in Cycle 251 where humidity levels never exceeded 60% while testing a rapid, multi block cycle. […] Cycle 252 was used to test the effect of a single block run with a longer period of hold. […] Cycle 253 tested the penetration of Bubbler created PAA vapor into the long lumens of an Olympus TJF-160 duodenoscope. The scope surface, elevator wire channel, air/water channel, and suction biopsy channel were each inoculated with 6-logs of Geobacillus stearothermophilus spores. No hookups were used to pass PAA vapor into the lumens.\nCycle 254 tested a single 15-minute contact time on BIs in the chamber and within a Tyvek pouch. With pump down and ventilation, the total run time was 22 minutes. […] Additionally, between 5 and 10 additional minutes could be cut out of the cycle to achieve the same results. This is based on the rate at which the chemical indicators bleach out within the chamber, which tends to happen less than 5 minutes after PAA exposure begins. Within this cycle as well, two different types of Cantel Medical PAA chemical indicators were used. No appreciable difference was observed between the two varieties of CIs. Cycles 255 and 256 provide insight into the utility of the large scale Bubbler technology. […] The results of the Hemofilter can be explained by the complexity of filter membrane and its massive surface area. More “blocks” or injections of PAA vapor are likely needed to saturate the filter membrane with PAA vapor. The bone matrix, however, is readily porous and should be easily sterilized under these conditions. […] It is hypothesized that the metal is causing a breakdown of the PAA vapor as it passes through the bone matrix."}, "[8]": {"conditions": "Cycle 254: contact time 900 (15-minute), 1 inj, inj 5 torr"}, "[9]": {"conditions": "Cycle 255: contact time 1200, 3 inj, inj 5 torr"}, "[10]": {"conditions": "Cycle 256: contact time 3600, 2 inj, inj 1 torr"}},
  "data": [
    {"smiles": "CC(=O)OO", "note": "[PAA, peracetic acid]", "values": [
      {"measurement": "Scope Exterior", "setting": "[1]", "value": "full kill"},
      {"measurement": "Scope Lumens", "setting": "[1]", "value": 1, "unit": "log reduction"},
      {"measurement": "Result: survivors on 22 inoculated surfaces", "setting": "[2]; Bronchoscope BF-P40 and BF-P30, bubbler 4000 mL/min, circulation 11000 mL/min, contact 30 min", "value": "All 22 inoculated surfaces have no"},
      {"measurement": "Result: survivors on 22 inoculated surfaces", "setting": "[2]; Colonoscope CFQ-160L, bubbler 4000 mL/min, circulation 12000 mL/min, contact 60 min", "value": "All 22 inoculated surfaces have no"},
      {"measurement": "Result: survivors on 22 inoculated surfaces", "setting": "[2]; Enteroscope XSIF-100, bubbler 4000 mL, circulation 11000 mL/min, contact 15 min and 30 min", "value": "All 22 inoculated surfaces have no"},
      {"measurement": "BI Results", "setting": "[3]; contact time 600 seconds (Manual 1, Manual 2), chamber 20 torr, BI in vessel along flow path", "value": "alive"},
      {"measurement": "biological indicators", "setting": "[3]; scope flow time 30 minutes or greater", "value": "dead"},
      {"measurement": "survivors on 22 inoculated surfaces, scope and biological indicators", "setting": "[4]", "value": "no survivors"},
      {"measurement": "worst case residual toxicity", "setting": "[5]", "value": "7050 mg of PAA per total device"},
      {"measurement": "residuals on the scope", "setting": "[6]", "value": "30 mg of PAA"},
      {"measurement": "BI Results: BIs in Beakers (negative = kill)", "setting": "[7]; Cycle 250: contact time 1200, 3 inj, inj 5 torr, post inj 500 torr, humidity exceeded 100%", "value": "complete kill"},
      {"measurement": "BI Results: BIs in Beakers", "setting": "[7]; Cycle 251: contact time 60, 20 inj, inj 5 torr, humidity never exceeded 60%", "value": "No kill"},
      {"measurement": "BI Results: BIs in Beakers", "setting": "[7]; Cycle 252: contact time 1800, 1 inj, inj 5 torr, humidity exceeded 100%", "value": "Kill was achieved"},
      {"measurement": "BI Results: BIs in Beakers", "setting": "[7]; [8]", "value": "sterilized"},
      {"measurement": "BI Results: BIs in Tyvek", "setting": "[7]; [8]", "value": "sterilized"},
      {"measurement": "BI Results: BIs in Syringe PCD", "setting": "[7]; [9]", "value": "able to kill"},
      {"measurement": "BI Results: Bone Marrow BI", "setting": "[7]; [9]", "value": "not able to kill"},
      {"measurement": "BI Results: Hemofilter PCD BI", "setting": "[7]; [9]", "value": "not able to kill"},
      {"measurement": "BI Results: Bone Marrow PCD", "setting": "[7]; [10]", "value": "not able to kill"},
      {"measurement": "BI Results: Hemofilter PCD", "setting": "[7]; [10]", "value": "not able to kill"},
      {"measurement": "BI Results: Syringe PCD", "setting": "[7]; [10]", "value": "able to kill"}
    ]}
  ]
}
